Source: patent publication US10258598B2, “Compounds for use in the prevention or treatment of cancer” ([…], priority 2014, dated 2019)

Legend:
[1] = test system: enhancer-sensitive neurons of isolated rat brain stem; details: optimal concentration for specific enhancer effect, 3-min collection period; review Knoll, 2005; cited from earlier work
[2] = test system: fibromyxosarcoma; experiment: Longevity study: manifestation of subcutaneous fibromyxosarcoma (TMS effect); type: in vivo, Wistar rats; details: for month in which the last animal manifested the tumor / rats that manifested the tumor to the end of the 32nd month of age / rats that manifested the tumor when the group completed the 30th month of life / age at which the first animal manifested the tumor: N=40; for rats that manifested the tumor to the end of the 32nd month of age / rats that manifested the tumor when the group completed the 30th month of life: saline 20 rats; for age at which the first animal manifested the tumor: saline: 11th month; for span of time from tumor manifestation until death, versus saline: chronic treatment, One-way ANOVA (FIG. 13)
Protocol: (§1) The longevity study was performed on 200 male rats received from the breeding colony of the Semmelweis University. The rats were born at the end of February of 2010. After 2-month acclimation period the rats were divided randomly into 5 even groups. The longevity study started at the beginning of May 2010. Animals were observed until their natural deaths. The data in this study represent the changes observed until Oct. 31, 2012, since in the saline-treated group the last animal died on Oct. 31, 2012. As will be shown later a few rats in the enhancer-treated groups were still alive on Nov. 1, 2012.
(§2) During the longevity study 5 rats were housed together in polycarbonate cages (height: 18 cm; wide: 42 cm; length: 44 cm) with a stainless steel on the top. Cage bedding was renewed 3 times a week (Monday, Wednesday and Friday). Bodyweight was measured once every month. The treatment started at the end of the second month of their age. […] To avoid the mixing of the groups and individuals, saline-treated rats were signed blue from 1 to 40; D-treated rats were signed green from 1 to 80 (1-40: rats treated with 0.1 mg/kg and 41-80: rats treated with 0.001 mg/kg); B-treated rats were signed black from 1 to 80 (1-40: rats treated with 0.05 mg/kg and 41-80: rats treated with 0.0001 mg/kg).
We carefully observed the appearance of the subcutaneous tumor and followed the development of the tumor until death. Histological analysis was performed post mortem on several rats taken from each group as examples.
The subcutaneous tumors developed in the rats were measured by the two largest diameters. After sacrificing the animals, the tumors were removed, photographs were taken. Tissues were fixed immediately after removal in 10% neutral formalin (in PBS, pH7.0) for 24 hours at room temperature, dehydrated and embedded in paraffin. 3-4 micrometer thick sections were cut and stained by hematoxylin and eosin (HE) as a routine.
(§3) Significance in the performance between the groups in the shuttle box was evaluated by multi-factor analysis of variance (ANOVA). Significance regarding the span of time from tumor manifestation until death in rats and regarding aging related changes in bodyweight treated chronically with the enhancer substances was analyzed by One-way ANOVA. Statistical analysis of survival rate and tumor manifestation was performed by the Kaplan-Meier method.

[3] = test system: Daoy HTB-186 cell line; experiment: MTT proliferation assay, Daoy medulloblastoma cells; type: cell-based, human; details: 72 hours; for proliferation of cultured cells, monotherapy: nine concentrations between 10^-14 and 10^-6 M, MTT
Protocol: (§4) Human medulloblastoma cell line, Daoy was purchased from ATCCC, UW-228 was obtained from the courtesy of Professor Silber (University of Washington, Seattle, Wash., USA).
(§5) Daoy and UW-228-2 cell lines were maintained in culture medium (each 500 ml Minimum Essential Medium Eagle, Alpha Modification (M8042, Sigma, St Louis, USA) with 50 ml FCS (Gibco), 40 mg Gentamicin (Sandoz), 5 ml sodium-pyruvate (S8636, Sigma, St Louis, USA), 5 ml non-essential-amino acid solution (M7145, Sigma, St Louis, USA), 10 ml L-glutamin (Sigma, St Louis, USA) at 37° C. in humified 5% CO2.
(§6) In each well 3×10^3 Daoy or UW-228-2 cells were seeded in 96-well plates (Sarstedt), solved in 100 µl of its own medium with 10% FCS. 24 hours after seeding, cells were treated for 72 hours by drugs solved in further 100 μl medium. First, both cell lines were treated by (−)-BPAP and (−)-deprenil in monotherapy to determine its dose-effect curves in concentration of 10^−6, 10^−7, […], 10^−9, 10^−10, 10^−11, 10^−12, 10^−13 and 10^−14 M. In combined treatment 10^−3, 3.3×10^−4, […] and 3.7×10^−5 M of temozolomide (Schering Plough, USA) or 0.04, 0.2, 1, 5 μM of Cisplatin (Ebewe Pharma, Austria) or 0.04, 0.2, 1, 5 μM of etoposide (Ebewe Pharma, Austria) or 10^−7, 10^−6, 10^−5 and 10^−4 μM (UW228-2) or 0.001, 0.005, 0.025 and 0.125 μM (Daoy) of Vincristin (Richter Gedeon, Hungary) were applied in monotherapy or combined with 10^−13 or 10^−8 M of (−)-BPAP or (−)-deprenil.
(§7) Cell proliferation was evaluated by MTT (3-(4,5-Dimethylthiazol-2-yl)-2,5-diphenyltetrazolium bromide) assay (M5655, Sigma) after 72-hour treatment by the method described in manufacturer's protocol.

[4] = test system: male Wistar rats (Charles River); experiment: Longevity study: survival of rats under lifelong treatment; type: in vivo, rat; details: for month of age in which the first animal died: saline: 9th month; for lifespan versus saline-treated peers: both doses of each substance (FIGS. 5-8), Kaplan-Meier
Protocol: Experiments were carried out on male Wistar rats (Charles River) weighing 250-350 g received from the breeding colony of Semmelweis University. The animals were kept in a 12-hour light-dark cycle and under condition of controlled temperature (22±2° C.) and relative humidity (55±5%). Room temperature and relative humidity was checked daily. The rats were maintained on standard laboratory chow and tap water ad libitum. All procedures conformed to the European Convention for the protection of vertebrate animals used for experimental and other scientific purposes. The study was approved by the Animal Ethics Committee of Semmelweis University, Budapest (permission number: 1810/003/2004)
as §1, §2, §3

[5] = test system: UW-228-2 cell line; experiment: MTT proliferation assay, UW-228-2 medulloblastoma cells; type: cell-based, human; details: 72 hours; for proliferation of cultured cells, monotherapy: nine concentrations between 10^-14 and 10^-6 M, MTT
Protocol: as §4, §5, §6, §7

[6] = 10^-13 or 10^-8 M combined with temozolomide, Cisplatin, etoposide or Vincristin

Compound: CCCN[C@H](CCC)Cc1cc2ccccc2o1 [(−)-BPAP, (R)-1-(benzofuran-2-yl)-2-propylamino pentane]
- released amount of labeled transmitter ([3H]-norepinephrine, [3H]-dopamine or [3H]-serotonin) versus absence of substance [1]: significantly higher
- tumor manifestation suppressing (TMS) effect versus saline ([2]; 0.0001 mg/kg, Kaplan-Meier, P<0.001 (FIG. 12)): significantly decreased
- tumor manifestation suppressing (TMS) effect versus saline ([2]; 0.0001 mg/kg, Kaplan-Meier, P<0.001 (FIG. 12), listed as BPAP): suppressed the manifestation of the fibromyxosarcoma significantly
- month in which the last animal manifested the tumor ([2]; 0.0001 mg/kg): 31 month
- rats that manifested the tumor to the end of the 32nd month of age ([2]; 0.0001 mg/kg): 8 rats
- rats that manifested the tumor when the group completed the 30th month of life ([2]; 0.0001 mg/kg, P<0.001): 8 rats
- age at which the first animal manifested the tumor ([2]; 0.0001 mg/kg): 20 month
- age at which the first animal manifested the tumor ([2]; 0.0001 mg/kg, listed as BPAP): 25 month
- tumor manifestation suppressing (TMS) effect versus saline ([2]; 0.05 mg/kg, Kaplan-Meier, P<0.001 (FIG. 11)): significantly decreased
- tumor manifestation suppressing (TMS) effect versus saline ([2]; 0.05 mg/kg, Kaplan-Meier, P<0.001 (FIG. 11), listed as BPAP): suppressed the manifestation of the fibromyxosarcoma significantly
- month in which the last animal manifested the tumor ([2]; 0.05 mg/kg): 29 month
- rats that manifested the tumor to the end of the 32nd month of age ([2]; 0.05 mg/kg): 7 rats
- rats that manifested the tumor when the group completed the 30th month of life ([2]; 0.05 mg/kg, P<0.001): 7 rats
- age at which the first animal manifested the tumor ([2]; 0.05 mg/kg): 13 month
- span of time from tumor manifestation until death, versus saline [2]: no significant difference
- effectiveness of tumor-cell proliferation inhibiting agents in combination [3, 6]: did not change the effectiveness
- proliferation of cultured cells, monotherapy [3]: did not inhibit the proliferation
- proliferation of cultured cells, monotherapy ([3]; listed as BPAP): In none of the applied concentrations
- month of age in which the first animal died ([4]; 0.0001 mg/kg s.c. 3 times a week, N=40): 16 month
- rats remaining alive to the end of the 32nd month of age ([4]; 0.0001 mg/kg, N=40, P<0.05 vs saline): one and One
- month of age in which the first animal died ([4]; 0.05 mg/kg s.c. 3 times a week, N=40): 14 month
- lifespan versus saline-treated peers [4]: significantly longer
- effectiveness of tumor-cell proliferation inhibiting agents in combination [5, 6]: did not change the effectiveness
- proliferation of cultured cells, monotherapy [5]: did not inhibit the proliferation
- proliferation of cultured cells, monotherapy ([5]; listed as BPAP): In none of the applied concentrations

Compound: C#CCN(C)[C@H](C)Cc1ccccc1 [(−)-Deprenyl, (R)—N-methyl-N-(1-phenylpropan-2-yl)prop-2-yn-1-amine]
- released amount of labeled transmitter ([3H]-norepinephrine, [3H]-dopamine or [3H]-serotonin) versus absence of substance [1]: significantly higher
- tumor manifestation suppressing (TMS) effect versus saline ([2]; 0.001 mg/kg, Kaplan-Meier (FIG. 10)): not significant
- month in which the last animal manifested the tumor ([2]; 0.001 mg/kg): 29 month
- rats that manifested the tumor to the end of the 32nd month of age ([2]; 0.001 mg/kg): 15 rats
- age at which the first animal manifested the tumor ([2]; 0.001 mg/kg): 12 month
- age at which the first animal manifested the tumor ([2]; 0.1 mg/kg s.c. 3 times a week): 16 month
- tumor manifestation suppressing (TMS) effect versus saline ([2]; 0.1 mg/kg, Kaplan-Meier, P<0.01 (FIG. 9), listed as (−)-deprenyl): significantly decreased
- tumor manifestation suppressing (TMS) effect versus saline ([2]; 0.1 mg/kg, Kaplan-Meier, P<0.01 (FIG. 9), listed as Deprenyl): suppressed the manifestation of the fibromyxosarcoma significantly
- month in which the last animal manifested the tumor ([2]; 0.1 mg/kg): 32 month
- rats that manifested the tumor to the end of the 32nd month of age ([2]; 0.1 mg/kg): 11 rats
- rats that manifested the tumor when the group completed the 30th month of life ([2]; 0.1 mg/kg, P<0.01): 11 rats
- span of time from tumor manifestation until death, versus saline [2]: no significant difference
- proliferation of cultured cells, monotherapy ([3]; listed as (−)-deprenyl): did not inhibit the proliferation
- proliferation of cultured cells, monotherapy ([3]; listed as Deprenyl): In none of the applied concentrations
- month of age in which the first animal died ([4]; 0.001 mg/kg s.c. 3 times a week, N=40): 13 month
- month of age in which the last animal died ([4]; 0.001 mg/kg, N=40): 32 month
- rats remaining alive to the end of the 32nd month of age ([4]; 0.001 mg/kg, N=40, P>0.05 vs saline): none
- month of age in which the first animal died ([4]; 0.1 mg/kg s.c. 3 times a week from 2 months of age, N=40): 11 month
- lifespan versus saline-treated peers [4]: did not prolong the lifespan of rats significantly
- proliferation of cultured cells, monotherapy ([5]; listed as (−)-deprenyl): did not inhibit the proliferation
- proliferation of cultured cells, monotherapy ([5]; listed as Deprenyl): In none of the applied concentrations
